Data published in patent publication US9618453B2, “Aggregation induced emission of fluorescent bioprobes and methods of using the same” (THE HONG KONG UNIVERSITY OF SCIENCE AND TECHNOLOGY, priority 2011, dated 2017).
Blank lines part the entries; values can stand above or below the compound they belong to.

Columns and labels:
BSA (35 Cys) = BSA (35 Cys) (Bos taurus, UniProt P02769); experiment: Fluorescent labeling of Cys residues of protein with TPEMBR, SDS-PAGE; parameters: species or system bovine; details: series of dye/thiol ratios
Procedure: 2.5 μL Tris-HCl (1 M), 2.5 μL TCEP (20 mM), 5 μL BSA (1 mg/mL, 15 μM), and 30 μL urea (8 M in water) was added to a 1.5 mL Eppendorf tube and mixed well. The mixture was incubated at room temperature for 30 min to pre-reduce the disulfide bonds with TCEP. Then, 10 μL of the TPEMBR DMSO stock solution (2.5 mM 5×) was added to the system and made the final volume 50 μL. The reaction mixture was incubated for 3 hours at 50° C. in an Eppendorf Thermomixer. Then, samples were cooled either to room temperature for instant use or frozen for eventual use.
In order to ensure that the Cys residues were sufficiently labeled with TPEMBR, a longer reaction time (usually overnight) at or below room temperature was required. Alternatively, the reaction time could be reduced if labeling was carried out at 50° C. To verify the time-dependence of labeling efficiency, bovine serum albumin (BSA) samples were labeled with TPEMBR for different times ranging from 10 min to 4 h and analyzed by SDS-PAGE. The fluorescence intensity of the labeled BSA increased as the reaction time was extended. The maximum intensity under specific labeling conditions was observed after 3 h and remained unchanged even with an additional 1 h of reaction time (FIGS. 11a and 11b). […] The time-dependent labeling effect provides a way to determine the desirable DOL according to different applications by simply controlling the labeling time. Meanwhile, a lower temperature labeling process with a longer reaction time could be a better choice to obtain fluorescent proteins while maintaining their native structures.
BSA samples were subjected to labeling with different dye concentrations. The SDS-PAGE fluorescence intensity of labeled BSA increased with increasing dye concentration. […] Further increasing the dye concentration could give higher fluorescence intensity due to nonspecific labeling. Clearly, the DOL of protein samples can be controlled by varying the dye concentration.
Specific labeling of Cys residues by TPEMBR was examined through the labeling of proteins with different Cys contents. BSA (35 Cys), yeast enolase (single Cys) and horse myoglobin (0 Cys) were labeled with 0.5 mM of TPEMBR, respectively. The corresponding fluorescent products were analyzed on gel. […] The results further confirmed the specificity of TPEMBR to Cys residue when the working concentration of 0.5 mM was used.
BSA was labeled by each dye with a series of varying dye/thiol ratios. After the electrophoresis, the gel fluorescent image was taken under UV excitation and the fluorescence intensity was obtained from three independent experiments. Fluorescence intensities normalized with the sample with the lowest dye concentration are plotted versus the dye/thiol ratio (FIG. 16). […] This self-quenching effect is inevitable for self-quenching dyes such as 5-BMF and limits these dyes' application on quantification of proteins. In contrast, detection and quantification of proteins with high contents of Cys can be easily achieved by using AIE active molecules such as TPEMBR.

[1] = target: bovine serum albumin (BSA) (Bos taurus, UniProt P02769); experiment: SDS-PAGE staining of BSA with TPENCS (prestaining, poststaining), compared with CBB and FITC; details: for LOD / limit of detection (LOD): BSA on SDS-PAGE gel, CBB restaining of the same gel; for LOD: TPENCS poststaining; for limit of detection (LOD): TPENCS prestaining; for LOD on nitrocellulose membrane: after transfer from gel; for self-quenching effect versus F/P ratio: equal amount of BSA, series of dye concentrations
Procedure: The protein samples were treated with denaturizing 4× sample buffer containing 62.5 mM Tris (pH 8.5), 20% (v/v) glycerol, 4% SDS (w/v), and 3% (w/v) DTT for 5 min at 85˜95° C. in Protein Lobind Eppendorf cups. Serial dilutions of the proteins were labeled and loaded onto the gel lanes. Electrophoresis was carried out on self-cast polyacrylamide mini-gels (1 mm thick) using a discontinuous buffer system. The separation gel (pH 8.8) contained 12% polyacrylamide. The stacking gel (pH 6.8) contained 4% polyacrylamide. Both gels have an acrylamide/bis ratio of 37.5:1. The running buffer contained 25 mM Tris (pH 8.6), 192 mM glycine and 0.1% SDS (w/v) in water. All solutions were freshly prepared prior to use. SDS-PAGE was carried out on a vertical polyacrylamide gel system at a current of 15 mA until the protein bands reached the interface of the separating gel. Separation was performed at 100 V for two hours.
Fluorescence prestaining of proteins for SDS-PAGE gels was applied prior to the denaturation step. About 1 mg of the protein was dissolved in 1 mL of 0.1 M sodium bicarbonate buffer solution (15 μM). 10 μL of TPENCS DMSO stock solution (5 mM) was added to 100 μL protein solution. The pH was optimized to ˜9 by adding 1 M sodium bicarbonate buffer. The reaction mixture was incubated for 2 h at 37° C. in an Eppendorf Thermomixer. Then, samples were cooled either to room temperature for instant use or frozen for eventual use.
2.5 g of Coomassie blue R250 was dissolved in 1000 mL of 50% (v/v) methanol, 10% (v/v) acetic acid, and 40% (v/v) water with stirring as needed. The solution was filtered to remove any insoluble material. The final concentration of Coomassie blue R250 was 0.25% (w/v). After electrophoresis, the apparatus was disassembled and the gel was immerged into CBB solution. The gel was stained at room temperature overnight with gentle agitation. The Coomassie stain was removed by aspiration after staining. The gel was then immerged into the destaining solution composed of 50% (v/v) methanol, 10% (v/v) acetic acid, and 40% (v/v) water which allowed the gel to destain with gentle agitation. The destaining step was repeated several times, removing destaining solution at each change by aspiration. The destaining was continued until the protein bands were seen clearly without any background staining of the gel.
The protocol of gel fluorescent poststaining with TPENCS was similar to that of the CBB poststaining. The only difference was that the composition of the staining solution was prepared by mixing 1 mL DMSO stock solution of TPENCS (5 mM) with 20 mL 10% SDS aqueous (w/v) solution, and the pH was optimized to ˜9.0 by adding 1 M sodium bicarbonate buffer. The destaining solution was 10% SDS aqueous (w/v) solution. Similar to the destaining protocol of Coomassie brilliant blue, the gel was immerged into the 10% SDS aqueous (w/v) solution and destained with gentle agitation. The destaining solution was changed every two hours and the whole destaining process was finished within six hours.
Since nearly all kinds of proteins have reactive amine groups (lysine residues) on their molecular chains, bovine serum albumin (BSA), a commonly used protein, was employed as a test sample to verify the staining effect of TPENCS. The prestained BSA was loaded onto the gel lane b and a pure BSA sample was loaded on lane c at the same time as a control. After electrophoresis, the gel fluorescent image was taken under UV excitation within the Gel Doc XR+ documentation system (FIG. 2a). […] The gel was then introduced to the poststaining procedure and the fluorescent image was again obtained (FIG. 2b).

[2] = Photoluminescence in THF/water mixtures with different water fractions (aggregation induced emission); assay type: physicochemical
From the text: The AIE of TPENCS is illustrated in FIG. 1. […] With water content ranging from 0-70%, the fluorescence intensity remained at a very low level. When the water concentration was in the 80-90 vol % range, a rapid and dramatic increase of the fluorescence intensity with increasing water content was observed (FIG. 1b). The PL intensity of TPENCS in the water/THF solution with a water fraction of 90 vol % was approximately 50-fold higher than that in the mixture with 70% water. The quantum efficiency of TPENCS was 52.2% in the solid state.
Similar to other AIE active molecules, TPEMBR only gave weak emission in good solvents such as THF. […] To quantify the effect of water content on the degree of fluorescent emission enhancement, the photoluminescence intensity of TPEMBR was measured where the fraction of water was increased from 0 to 90 vol %. With the water content in the range of 0-70%, the fluorescent intensity remained at a very low level. With the water fraction reaching the 80-90 vol % range, a rapid and dramatic increase of the fluorescent intensity was observed (FIG. 9b). The photoluminescence intensity of TPEMBR in the water/THF solution with a water fraction of 90 vol % was approximately 50-fold stronger than that in the mixture with 70% water. In the solid state, the quantum efficiency of TPEMBR was determined to be 31.7%.
The AIE of SITC is illustrated in FIGS. 17a and 17b. The wavelength at maximum absorption of SITC was at 363 nm and the emission maximum was at 490 nm. […] To quantify the effect of water content on the elevation of the fluorescent emission, the photoluminescence intensity of SITC was measured with concentration of water increasing from 0 to 90 vol %. With water content ranging from 0-70%, the fluorescent intensity remained at a very low level. When the water concentration was in the 80-95 vol % range, a rapid and dramatic increase of the fluorescent intensity with increasing water content was observed (FIG. 17b). The photoluminescence intensity of SITC in the water/THF solution with a water fraction of 95 vol % was approximately 50-fold higher than that in the mixture with 70% water. The quantum efficiency of SITC was 45.8% in the solid state.
(§1) Tetrahydrofuran (THF; Labscan) was distilled under nitrogen from sodium benzophenone ketyl immediately prior to use. Acrylamide was purchased from Bio-Rad. Aminoallyl-dUTP (aa-dUTP), dNTPs, DNase I (RNase-free), DNA Polymerase I, Klenow Fragment exo-, Random Hexamer Primer, Long PCR Enzyme Mix and GeneJET™ PCR Purification Kit, GeneRuler™ 100 bp Plus DNA Ladder (ready-to-use, 100-3000 bp), 6×DNA Loading Dye were purchased from Fermentas (Thermo Scientific). Deep VentR™ exo-DNA Polymerase was purchased from New England Biolabs (NEB). Synthesized oligonucleotides (primers) were purchased from Tech Drogon Limited. GelRed™ Nucleic Acid Gel Stain (10000× in water) was purchased from Biotium. Other chemicals, reagents and solvents were all purchased from Aldrich or Invitrogen. ^1H and ^13C NMR spectra were measured on a Bruker ARX 400 NMR spectrometer using CDCl3 as solvent. High-resolution mass spectra (HRMS) were taken on a Finnigan TSQ 7000 triple quadrupole spectrometer in a MALDI-TOF mode. UV spectra were measured on a Milton Roy Spectronic 3000 Array spectrophotometer. Fluorescence (FL) spectra were recorded on a Perkin-Elmer LS 55 spectrofluorometer. FL quantum yields (ΦF) of amorphous powders of siloles were measured using C-701 Time-Resolved Spectrofluorometer with the integrating sphere as accessory.
Structure of dye is confirmed by standard spectroscopic methods (FIGS. 23, 26a, and 27a). In order to confirm TPEITC is AIE-active, we investigated its fluorescence in THF/water mixtures with different water fractions. […] TPEITC molecules with hydrophobic aromatic cores precipitated and became aggregate in the nonsolvent mixture. Aggregation blocks the nonradiative relaxation channels and populates the radiative decay, thus resulting in high luminescence. […]

[3] = UV absorption of SITC for DOL calculation (Beer-Lambert law); assay type: physicochemical
Procedure: The 1061 bp template DNA was a PCR product of plasmid DNA. dTTP was replaced with increasing amount of SITC-dUTP. DOL of labeled DNA (number of dyes per 100 bases) were calculated from UV absorption base on Beer-Lambert law. The calculated molar extinction coefficient (ε) of SITC is 10277 cm^−1M^−1 and its correction factor (CF) is 2.08.

[4] = Fluorescence quantum efficiency in the solid state; assay type: physicochemical
From the text: as §1

Sequence of bovine serum albumin (BSA) (P02769 25-607): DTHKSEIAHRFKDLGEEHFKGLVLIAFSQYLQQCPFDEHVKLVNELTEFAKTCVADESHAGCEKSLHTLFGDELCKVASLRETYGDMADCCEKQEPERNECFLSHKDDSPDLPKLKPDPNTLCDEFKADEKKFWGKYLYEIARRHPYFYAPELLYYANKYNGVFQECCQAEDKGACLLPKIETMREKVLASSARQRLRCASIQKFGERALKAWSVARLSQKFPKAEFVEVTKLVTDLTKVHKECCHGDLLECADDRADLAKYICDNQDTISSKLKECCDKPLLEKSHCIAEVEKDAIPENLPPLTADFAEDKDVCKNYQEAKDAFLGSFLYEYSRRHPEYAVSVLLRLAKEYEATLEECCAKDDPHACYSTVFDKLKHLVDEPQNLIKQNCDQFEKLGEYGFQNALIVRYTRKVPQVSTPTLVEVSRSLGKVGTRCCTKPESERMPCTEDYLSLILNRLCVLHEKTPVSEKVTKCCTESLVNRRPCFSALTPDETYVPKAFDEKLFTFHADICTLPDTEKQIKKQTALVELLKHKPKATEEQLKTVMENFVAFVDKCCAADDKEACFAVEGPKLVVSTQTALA
Sequence of BSA (35 Cys) (P02769 25-607): as above

- self-quenching effect versus dye/thiol ratio (BSA (35 Cys)): 30 times
Compound: O=C1OC2(c3ccc(O)cc3Oc3cc(O)ccc32)c2ccc(CBr)cc21 [5-BMF, reference compound]

- LOD [1]: remained the same
- limit of detection (LOD) [1]: 0.2 µg
Compound: CCOc1ccc(Nc2ccc(C(=C3C=CC(=[N+](CC)Cc4cccc(S(=O)(=O)[O-])c4)C=C3)c3ccc(N(CC)Cc4cccc(S(=O)(=O)[O-])c4)cc3)cc2)cc1.[Na+] [CBB, reference compound]

Continued, compound first:

Compound: C[Si]1(C)C(c2ccc(CN=C=S)cc2)=C(c2ccccc2)C(c2ccccc2)=C1c1ccc(CN=C=S)cc1 [SITC, 1,1-dimethyl-2,5-bis[4-(isothiocyanatemethyl)phenyl]-3,4-diphenyl silole]
- emission maximum [2]: 490 nm
- wavelength at maximum absorption [2]: 363 nm
- photoluminescence intensity relative to the mixture with 70% water ([2]; water/THF solution, water fraction 95 vol %): approximately 50 fold
- calculated molar extinction coefficient (ε) [3]: 10277 cm^−1M^−1
- correction factor (CF) [3]: 2.08
- quantum efficiency [4]: 45.8%

Compound: S=C=NCc1ccc(C(=C(c2ccccc2)c2ccccc2)c2ccccc2)cc1 [TPEITC]
- fluorescence intensity (I) relative to pure THF solution (I0) ([2]; THF/water mixture, water content 90 vol %): about 36177 fold

Compound: S=C=NCc1ccc(C(=C(c2ccccc2)c2ccc(CN=C=S)cc2)c2ccccc2)cc1 [TPENCS, 1,2-bis[4-(isothiocyanatemethyl)phenyl]-1,2-diphenylethene]
- PL intensity relative to the mixture with 70% water ([2]; water/THF solution, water fraction 90 vol %): approximately 50 fold
- LOD [1]: 0.1 µg
- limit of detection (LOD) [1]: 0.2 µg
- LOD on nitrocellulose membrane ([1]; poststaining): 1 µg
- effect on protein migration ([1]; prestained versus poststained BSA bands): no significant effect on protein migration rate
- LOD on nitrocellulose membrane ([1]; prestaining): 2 µg
- self-quenching effect versus F/P ratio ([1]; prestaining): kept increasing
- quantum efficiency [4]: 52.2%

Compound: fluorescein isothiocyanate [FITC, reference compound]
- self-quenching effect versus F/P ratio ([1]; prestaining): 1000 times
